Experimental data reported in publication PMC7435865, “Antinociceptive and Cytotoxic Activity of Opioid Peptides with Hydrazone and Hydrazide Moieties at the C-Terminus” (Molecules, 2020).
“And” between values parts separate entries of the source, which are not always exact repeats. Equal values may be shown once. Read-outs that look alike come from different tables or passages of the source. [ ]: non-standard residue; d: D form.

What was measured:
µ opioid receptor (MOR) [1] = molecular target: T1, µ opioid receptor (MOR) (Rattus norvegicus, UniProt P33535); assay: competitive radioligand binding, [3H]DAMGO displacement in rat brain homogenate
T1 construct: from tissue; host or cells: rat brain (membrane fractions of homogenate)
Procedure: (§1) The synthesized compounds were assayed for binding affinity to the μ- and δ-opioid (MOR and DOR, respectively), as well as to the neurokinin-1 receptors (NK1R). The determinations were performed in rat brain homogenates by competitive displacement of selective radioligands. The results are shown in Table 2 as the half-maximal inhibitory concentration (IC50) with the standard error of the mean (SEM).
(§2) The binding affinity of compounds 1b–6a for MOR, DOR, and NK1R was determined in competitive radioligand binding assays according to the method previously described. The specific radioligands were [^3H]DAMGO (DAMGO, [Tyr^1-3,5-^3H])), [^3H][Ile^5,6]DELT II ([Ile^5,6]Deltorphin II, [Tyr^l-3,5-^3H]) and [^3H]Substance P (Substance P, [Leu-3,4,5-^3H]), for experiments with MOR, DOR, and NK1R, respectively. The first two were obtained from Isotope Laboratory, Biological Research Centre, Institute of Biochemistry (Szeged, Hungary), whereas the latter was purchased from Perkin Elmer (Perkin Elmer Inc., Krakow, Poland). Membrane fractions of rat brain homogenate were incubated at 25 °C for 60 min in the presence of radioligands (0.5 nM) specific for each receptor and increasing concentrations of the tested compounds. To measure non-specific binding, 10 μM naloxone was used as the competitor for opioid receptors and 10 μM cold Substance P was used for NK1R. The reactions were carried out in assay buffer containing Tris-HCl (pH 7.4) with an addition of bovine serum albumin (BSA) and protease inhibitors (bacitracin, bestatin, captopril). After the incubation, the binding reactions were terminated by rapid filtration with M-24 Cell Harvester (Brandel/USA) through GF/B Whatman glass fiber strips (presoaked with 0.5% PEI in order to minimize non-specific binding). Radioactivity retained on the filters was measured in MicroBeta LS on a Trilux scintillation counter (PerkinElmer, Santa Clara, CA, USA). The experiments were repeated at least two times in duplicate. The IC50 value for each compound was determined using GraphPad Prism.

δ opioid receptor (DOR) = molecular target: T2, δ opioid receptor (DOR) (Rattus norvegicus, UniProt P33533); assay: competitive radioligand binding, [3H][Ile5,6]Deltorphin II displacement in rat brain homogenate
T2 construct: from tissue; host or cells: rat brain (membrane fractions of homogenate)
Procedure: as §1, §2

[2] = molecular target: T3, neurokinin-1 receptor (NK1R) (Rattus norvegicus, UniProt P14600); assay: competitive radioligand binding, [3H]Substance P displacement in rat brain homogenate
T3 construct: from tissue; host or cells: rat brain (membrane fractions of homogenate)
Procedure: as §1, §2

male Wistar rats [3] = assay: tail flick test after intrathecal administration; type: in vivo, rat; details: for ED50 ± SEM: tail flick, i.t., n = 4–8
Procedure: Analgesic activity of compounds 1b–1d was measured in the tail flick test after intrathecal administration to rats, according to a procedure thoroughly described before. First, adult male Wistar rats weighing 200–250 g were prepared for intrathecal administration by the catherization method described previously by Yaksh and Rudy. Each experimental group consisted of 4–8 rats. Next, spinally mediated analgesia was assessed in the tail flick test utilizing the Plantar Test and Tail Flick Analgesia Meter apparatus (IITC Life Science Inc., Los Angeles, CA, USA). Withdrawal latency was measured in triplicate. The cut-off latencies were set at 7 s to avoid burns. The measurements were performed before the administration of the tested compound (time 0) and 5, 15, 30, 60, and 120 min after injection. The control group received injections of 0.9% NaCl. Data from in vivo studies are presented as means ± SEM and were analyzed using two-way repeated measures of ANOVA followed by Dunnett-corrected multiple comparisons. Significance was defined as * p < 0.033, ** p < 0.002, *** p < 0.001. Data were analyzed using GraphPad Prism. The responses were expressed as a percentage of a maximum possible effect (%MPE), calculated as ((T1 − T0)/(T2 − T0)) × 100, where T0 and T1 are latencies before and after drug injection, respectively, and T2 is the cut-off time. All experimental procedures were approved by The Local Committee for Ethics in Animal Experiments, permission no. 46/2013.

[4] = test system: MeW155 human melanoma cells; assay: melanoma cell number in culture after incubation with compound; type: cell-based; details: 50 µM, 96 h incubation
Procedure: The determination was performed by counting the cells of the MeW155 cell line after incubating them with 50 µM of the tested compounds.
The cells were plated in 24-well plates (5000 cells per well) and incubated for 24 h in Eagle’s medium containing 10% fetal bovine serum and 1% solution of penicillin and streptomycin. […] Control cells were treated with 1% DMSO only. After 96 h of incubation, the cell suspension was first lysed in lysis buffer (ReagentA, ChemoMetec A/S) and then stabilized in stabilization buffer (ReagentB, ChemoMetec A/S). The number of […] was quantified in a propidium iodide cassette with the use of a NucleoCounter® NC-100™ (ChemoMetec A/S) cell counter. The tests were performed in triplicate. The results were normalized so that the values obtained for the control were 100%.

MOR = details: cited from earlier work
DOR = molecular target: DOR; set-up: method as in PMID 17927164; details: cited from earlier work
µ opioid receptor (MOR) [5] = molecular target: T1, µ opioid receptor (MOR); set-up: method as in PMID 28105278; details: rat brain homogenate; previously reported ref 33; read-out: MOR IC50 ± SEM; cited from earlier work
male Wistar rats [6] = test system: male Wistar rats; set-up: method as in PMID 28105278; details: already published ref 33, cited from earlier work
[7] = 0.5 nmol/rat i.t., 15 min after injection

T2 sequence (P33533 whole entry): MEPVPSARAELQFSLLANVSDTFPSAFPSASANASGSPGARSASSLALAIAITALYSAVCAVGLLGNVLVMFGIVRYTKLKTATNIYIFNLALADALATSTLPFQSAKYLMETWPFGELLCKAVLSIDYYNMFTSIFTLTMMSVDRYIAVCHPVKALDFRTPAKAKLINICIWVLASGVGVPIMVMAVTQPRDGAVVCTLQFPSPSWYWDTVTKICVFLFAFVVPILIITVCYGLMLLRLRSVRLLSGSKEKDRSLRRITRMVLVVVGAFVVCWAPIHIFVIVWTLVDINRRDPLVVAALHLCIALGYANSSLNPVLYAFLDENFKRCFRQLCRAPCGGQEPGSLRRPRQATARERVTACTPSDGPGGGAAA
T1 sequence (P33535 whole entry): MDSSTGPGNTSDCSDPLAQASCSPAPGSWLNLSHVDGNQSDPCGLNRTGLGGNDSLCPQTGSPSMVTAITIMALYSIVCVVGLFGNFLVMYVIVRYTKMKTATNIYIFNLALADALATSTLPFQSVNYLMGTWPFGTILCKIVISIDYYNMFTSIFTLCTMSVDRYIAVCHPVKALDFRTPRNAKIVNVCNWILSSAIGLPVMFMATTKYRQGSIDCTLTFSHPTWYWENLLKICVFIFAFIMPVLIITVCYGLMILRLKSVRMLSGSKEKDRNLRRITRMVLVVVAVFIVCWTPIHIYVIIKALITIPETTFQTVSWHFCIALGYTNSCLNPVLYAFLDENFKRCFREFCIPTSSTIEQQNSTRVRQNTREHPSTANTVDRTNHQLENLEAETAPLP
T3 sequence (P14600 whole entry): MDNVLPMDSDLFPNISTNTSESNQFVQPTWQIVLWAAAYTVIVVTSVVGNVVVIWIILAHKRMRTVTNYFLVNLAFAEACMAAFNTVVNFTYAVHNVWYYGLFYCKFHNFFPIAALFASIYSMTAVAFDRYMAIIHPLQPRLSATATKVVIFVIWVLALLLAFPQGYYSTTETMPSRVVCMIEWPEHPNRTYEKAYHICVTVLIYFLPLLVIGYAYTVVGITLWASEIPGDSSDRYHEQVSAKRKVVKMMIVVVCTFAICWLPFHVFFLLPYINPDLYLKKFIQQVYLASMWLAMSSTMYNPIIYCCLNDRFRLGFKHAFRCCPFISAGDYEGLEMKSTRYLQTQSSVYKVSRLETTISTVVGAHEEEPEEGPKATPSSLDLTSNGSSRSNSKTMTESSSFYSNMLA

Compound `C[C@@H](NC(=O)[C@@H](N)Cc1ccc(O)cc1)C(=O)NCC(=O)N[C@@H](Cc1ccccc1)C(=O)NNC(=O)c1cc(C(F)(F)F)cc(C(F)(F)F)c1` [1b, H-Tyr-D-Ala-Gly-Phe-NH-NH-C(=O)-3,5-(CF3)2Ph] has an IC50 (µ opioid receptor (MOR) [1]) of 111 ± 12.7 nM, an IC50 (δ opioid receptor (DOR)) of 413 ± 105 nM and an IC50 [2] of over 1000 nM. The “area under the time course curve (AUC) of analgesic effect” value (“area under the time course curve (AUC)” for short) (male Wistar rats [3]; 0.5 nmol/rat i.t.) was 3421 ± 673 units, the “antinociceptive effect, % of maximal possible effect” value (from here on “antinociceptive effect, %”) (male Wistar rats [3]; [7]) was 65 ± 6 % MPE and the “effect on number of melanoma cells (in words)” value (“effect on number” below) [4] was “no effect”.
With `C[C@@H](NC(=O)[C@@H](N)Cc1ccc(O)cc1)C(=O)NCC(=O)N[C@@H](Cc1ccccc1)C(=O)NNC(=O)Cc1cc(C(F)(F)F)cc(C(F)(F)F)c1` [1c, H-Tyr-D-Ala-Gly-Phe-NH-NH-C(=O)-CH2-3,5-(CF3)2Ph] the IC50 (µ opioid receptor (MOR) [1]) was 5.25 ± 1.14 nM, the IC50 (δ opioid receptor (DOR)) was 162 ± 8.75 nM and the IC50 [2] was over 1000 nM. The “area under the time course curve (AUC)” value (male Wistar rats [3]; 0.5 nmol/rat i.t.) was 1417 ± 730.1 units, the “antinociceptive effect, %” value (male Wistar rats [3]; [7]) was 31 ± 6 % MPE and the “antinociceptive effect, %” value (male Wistar rats [3]; 1 nmol/rat i.t., 15 min) was 85 ± 7 % MPE. The “ED50 ± SEM” value (male Wistar rats [3]) was 0.56 ± 0.04 nmol/rat and the “effect on number” value [4] was “no effect”.
In the case of `C[C@@H](NC(=O)[C@@H](N)Cc1ccc(O)cc1)C(=O)NCC(=O)N[C@@H](Cc1ccccc1)C(=O)NNC(=O)NN=Cc1cc(C(F)(F)F)cc(C(F)(F)F)c1` [1d, H-Tyr-D-Ala-Gly-Phe-NH-NH-C(=O)-NH-N=CH-3,5-(CF3)2Ph], the IC50 (µ opioid receptor (MOR) [1]) is reported as 4.73 ± 0.02 nM, the IC50 (δ opioid receptor (DOR)) is reported as 44 ± 2.75 nM and the IC50 [2] is reported as over 1000 nM. The “area under the time course curve (AUC)” value (male Wistar rats [3]; 0.5 nmol/rat i.t.) was 5732 ± 1161 units, the “antinociceptive effect, %” value (male Wistar rats [3]; [7]) was ~ 80 % MPE and the “antinociceptive effect, %” value (male Wistar rats [3]; 2 nmol/rat i.t., 120 min after administration) was 39 ± 10 % MPE. For the same compound, the “antinociceptive effect, %” value (male Wistar rats [3]; 4 nmol/rat i.t., 15 min) was 99 ± 7 % MPE, the “ED50 ± SEM” value (male Wistar rats [3]) was 0.32 ± 0.04 nmol/rat and the “effect on number” value [4] was “no effect”.
For “H2N-Tyr-D-Ala-Gly-Phe-NH-NH←Phe←Gly←D-Ala←Tyr-NH2 [biphalin]”, the IC50 (MOR) is listed as 1.4 nM.
In the case of H-Tyr-D-Ala-Gly-Phe-NH2, the Ki (MOR; read-out: MOR Ki) is given as 2.8 nM and the Ki (DOR) is given as 300 nM.
In the case of “H-Tyr-D-Ala-Gly-Phe-NH-N=CH-3,5-(CF3)2Ph [1a]”, the “effect on number” value [4] is listed as “significantly decrease the number of melanoma cells”, the “number of MeW155 cells, % of the control value” [4] is listed as 39 ± 4 % of the control and the IC50 (µ opioid receptor (MOR) [5]) is listed as 12.7 ± 0.75 nM. The “antinociceptive effect, %” value (male Wistar rats [6]; [7]) was ~ 80 % MPE and 80 ± 9 % MPE, the “area under the time course curve (AUC)” value (male Wistar rats [6]; 0.5 nmol/rat i.t.) was 4483 ± 592 units and the “ED50 ± SEM” value (male Wistar rats [6]; tail flick, i.t.) was 0.18 ± 0.05 nmol/rat.
For H-Tyr-D-Ala-Gly-Phe-NH-NH2, the IC50 (MOR) is listed as 4.7 nM.
In the case of H-Tyr-D-Ala-Trp-Cyn, the IC50 (MOR) is listed as 77.6 nM.
In the case of H-Tyr-Pro-Phe-NH2, the Ki (MOR; read-out: MOR inhibition constant Ki) is listed as 46.3 nM.
For H-Tyr-[dA]-Trp-OH, the IC50 (MOR) is listed as 977 nM.
For H-Y[dA]FF-NH2 [TAPP], the IC50 (MOR; determined in the authors' laboratory) is listed as 5.1 nM.
For H-Y[dA]GW-NH2, the “times weaker as a MOR binder than the [Phe4]-variant” value (MOR; versus H-Tyr-D-Ala-Gly-Phe-NH2) is given as “about 2 times”.
For Tyr-Pro-Phe-Phe-NH2 [endomorphin-2], the IC50 (MOR) is given as 3.9 nM.
